Results taken from US20170239323A1, “ORITAVANCIN FORMULATIONS” (The Medicines Company, priority 2016, published 2017).
Where two headings read alike, the source gives them in different places.

Key:
[1] = radiolabeled PK study ADME-rpt-7-053r95; cited from earlier work
[2] = Pharmacokinetics in ABSSSI patients after single 1200 mg IV oritavancin (ORBACTIV) in 1000 mL D5W; type: in vivo, human; conditions: plasma; for AUC(0-t) / half-life: iv, 1200 mg
Description: Oritavancin (as ORBACTIV®) was evaluated in double-blind, controlled ABSSSI clinical trials, which included 976 adult patients treated with a single 1200 mg intravenous dose of oritavancin in 1000 mL D5W. The formulation was prepared by adding 40 mL of sterile water for injection (WFI) to each of three 400 mg vials of ORBACTIV® to provide a 10 mg/mL solution per vial. Each vial was gently swirled to avoid foaming and ensure that all ORBACTIV powder was completely reconstituted in solution. […] The three solutions were combined and diluted to 1000 mL total volume with 5% dextrose in sterile water (D5W), to give a 1.2 mg/mL solution of oritavancin. The formulation was administered to each subject intravenously over 3 hours, and PK was measured (Table 20). The median age of patients treated with oritavancin was 45.6 years, ranging between 18 and 89 years of age with 8.8%≧65 years of age. Patients treated with oritavancin were predominantly male (65.4%), 64.4% were Caucasian, 5.8% were African American, and 28.1% were Asian. Safety was evaluated for up to 60 days after dosing.

[3] = Dilution in Hank's Balanced Salt Solution (HBSS, plasma surrogate): pH and visual observations; type: physicochemical; conditions: for time at which oritavancin started to fall out of solution: repeat with material 24 hours after reconstitution
Description: Reconstituting Orbactiv 400 mg (Oritavancin) in 20% w/v aqueous HPCD then diluting in Hank's Balanced Salt Solution (HBSS). 2.641 g of HPCD was dissolved in 13.205 mL of water to make a 20% w/v solution (pH=6.70). Eight (8) mL of the 20% w/v solution was added to a 400 mg vial of Orbactiv for a target oritavancin concentration of 50 mg/mL. […] A 1.5 mL aliquot of 50 mg/mL was removed from the vial and placed in a small glass vial and pH measured. Diluted 2 mL of 50 mg/mL oritavancin solution in 8 mL of HBSS. Visual observations and pH were recorded. (Table 12).
HBSS was used as a plasma surrogate in this experiment. Oritavancin at either 5 or 10 mg/mL precipitated from solution at 2 hours in HBSS. This experiment was repeated with the same material 24 hours later and observed over shorter time intervals. Diluted […] in a small glass vial to make a 10 mg/mL solution. Diluted […] in a small glass vial to make a 5 mg/mL solution. Solutions were observed and pH was tested every 0.25 hrs. (Table 14, Table 15).

[4] = mean, ABSSSI subjects, single 1200 mg IV dose over 3 hours (n = 297)
[5] = Table 12: 20% w/v HPCD reconstitution diluted in HBSS: oritavancin 10 mg/mL, HPCD 4% w/v, 0 hr
[6] = Table 12: 20% w/v HPCD reconstitution diluted in HBSS: oritavancin 10 mg/mL, HPCD 4% w/v, 0.5 hr
[7] = Table 12: 20% w/v HPCD reconstitution diluted in HBSS: oritavancin 10 mg/mL, HPCD 4% w/v, 1 hr
[8] = Table 12: 20% w/v HPCD reconstitution diluted in HBSS: oritavancin 10 mg/mL, HPCD 4% w/v, 2 hr
[9] = Table 14: repeat with 24-hour-old 20% w/v HPCD reconstitution diluted in HBSS: oritavancin 10 mg/mL, HPCD 2% w/v, 0 hr
[10] = Table 14: repeat with 24-hour-old 20% w/v HPCD reconstitution diluted in HBSS: oritavancin 10 mg/mL, HPCD 2% w/v, 0.25 hr
[11] = Table 15: 24-hour-old 20% w/v HPCD reconstitution diluted in HBSS: oritavancin 5 mg/mL, HPCD 2% w/v, 0 hr
[12] = Table 15: 24-hour-old 20% w/v HPCD reconstitution diluted in HBSS: oritavancin 5 mg/mL, HPCD 2% w/v, 0.25 hr
[13] = Table 15: 24-hour-old 20% w/v HPCD reconstitution diluted in HBSS: oritavancin 5 mg/mL, HPCD 2% w/v, 0.5 hr
[14] = Table 15: 24-hour-old 20% w/v HPCD reconstitution diluted in HBSS: oritavancin 5 mg/mL, HPCD 2% w/v, 0.75 hr
[15] = Table 15: 24-hour-old 20% w/v HPCD reconstitution diluted in HBSS: oritavancin 5 mg/mL, HPCD 2% w/v, 1 hr

**Q.** Which “plasma AUC relative to whole blood AUC” value [1] does the source give for `CN[C@H](CC(C)C)C(=O)N[C@H]1C(=O)N[C@@H](CC(N)=O)C(=O)N[C@H]2C(=O)N[C@H]3C(=O)N[C@H](C(=O)N[C@H](C(=O)O)c4cc(O)cc(O)c4-c4cc3ccc4O)[C@H](O[C@H]3C[C@](C)(N)[C@@H](O)[C@H](C)O3)c3ccc(c(Cl)c3)Oc3cc2cc(c3O[C@@H]2O[C@H](CO)[C@@H](O)[C@H](O)[C@H]2O[C@H]2C[C@](C)(NCc3ccc(-c4ccc(Cl)cc4)cc3)[C@@H](O)[C@H](C)O2)Oc2ccc(cc2Cl)[C@H]1O` [Oritavancin] here?
**A.** 1.59 ×

**Q.** And the “whole blood AUC as percentage of plasma AUC” value [1]?
**A.** 62.8%

**Q.** And the AUC ([2]; both sexes, human, intravenous, 1200 mg dose in man, read-out: plasma exposure (AUC) in man)?
**A.** ~2800 µg·h/mL

**Q.** And the AUC(0-t) ([2]; both sexes, human, mean, ABSSSI subjects, single 1200 mg IV dose over 3 hours (n = 297), read-out: AUC0-24)?
**A.** 1110 µg·h/mL

**Q.** And the AUC(0-t) ([2]; both sexes, human, mean, ABSSSI subjects, single 1200 mg IV dose over 3 hours (n = 297), read-out: AUC0-72)?
**A.** 1530 µg·h/mL

**Q.** What about the half-life ([2]; both sexes, human, mean, ABSSSI subjects, single 1200 mg IV dose over 3 hours (n = 297), read-out: T1/2,α (converted)) of the same molecule?
**A.** 2.29 h

**Q.** And the half-life ([2]; both sexes, human, mean, ABSSSI subjects, single 1200 mg IV dose over 3 hours (n = 297), read-out: T1/2,β (converted))?
**A.** 13.4 h

**Q.** What about the half-life ([2]; both sexes, human, mean, ABSSSI subjects, single 1200 mg IV dose over 3 hours (n = 297), read-out: T1/2,γ (converted)) of the same molecule?
**A.** 245 h

**Q.** And the Vd ([2]; both sexes, human, mean, ABSSSI subjects, single 1200 mg IV dose over 3 hours (n = 297), read-out: Vss)?
**A.** 97.8 L

**Q.** What about the AUC(0-inf) ([2]; both sexes, human, per Orbactiv Package Insert (Comparative Example 4): 1200 mg IV, D5W, 3 h infusion) of the same molecule?
**A.** 2800 µg·h/mL

**Q.** And the Cmax ([2]; both sexes, human, per Orbactiv Package Insert (Comparative Example 4): 1200 mg IV, D5W, 3 h infusion, read-out: Cmax)?
**A.** 138 µg/mL

**Q.** And the “AUC0-∞” value [2, 4]?
**A.** 2800 µg·h/mL

**Q.** What about the Cmax [2, 4] of the same molecule?
**A.** 138 µg/mL

**Q.** And the “time at which oritavancin precipitated from solution” value ([3]; 5 mg/mL in HBSS (20% w/v HPCD reconstitution))?
**A.** 2 h

**Q.** And the “time at which oritavancin started to fall out of solution” value ([3]; 5 mg/mL in HBSS)?
**A.** ~1.5 h

**Q.** What about the “time at which oritavancin precipitated from solution” value ([3]; 10 mg/mL in HBSS (20% w/v HPCD reconstitution)) of the same molecule?
**A.** 2 h

**Q.** And the “time at which oritavancin started to fall out of solution” value ([3]; 10 mg/mL in HBSS)?
**A.** 0.5 h

**Q.** What about the “time for which oritavancin remains in solution” value ([3]; 20% w/v aqueous HPCD reconstitution diluted into HBSS at 5 mg/mL) of the same molecule?
**A.** at least 1 hour

**Q.** And the Observations [3, 5]?
**A.** Clear, colorless solution

**Q.** What about the pH [3, 5] of the same molecule?
**A.** 5.83

**Q.** What about the Observations [3, 6] of the same molecule?
**A.** Clear, colorless solution

**Q.** And the pH [3, 6]?
**A.** 5.86

**Q.** What about the Observations [3, 7] of the same molecule?
**A.** Clear, colorless solution

**Q.** What about the pH [3, 7] of the same molecule?
**A.** 5.87

**Q.** And the Observations [3, 8]?
**A.** Flocculent white precipitate

**Q.** What about the pH [3, 8] of the same molecule?
**A.** 5.92

**Q.** What about the Observations [3, 9] of the same molecule?
**A.** Clear, colorless solution

**Q.** And the pH [3, 9]?
**A.** 6.19

**Q.** What about the Observations [3, 10] of the same molecule?
**A.** Clear, colorless solution

**Q.** What about the pH [3, 10] of the same molecule?
**A.** 6.21

**Q.** What about the pH ([3]; Table 14: repeat with 24-hour-old 20% w/v HPCD reconstitution diluted in HBSS: oritavancin 10 mg/mL, HPCD 2% w/v, 0.5 hr) of the same molecule?
**A.** 6.30

**Q.** And the pH ([3]; Table 14: repeat with 24-hour-old 20% w/v HPCD reconstitution diluted in HBSS: oritavancin 10 mg/mL, HPCD 2% w/v, 0.75 hr)?
**A.** 6.33

**Q.** And the pH ([3]; Table 14: repeat with 24-hour-old 20% w/v HPCD reconstitution diluted in HBSS: oritavancin 10 mg/mL, HPCD 2% w/v, 1 hr)?
**A.** 6.38

**Q.** And the Observations [3, 11]?
**A.** Clear, colorless solution

**Q.** What about the pH [3, 11] of the same molecule?
**A.** 6.39

**Q.** What about the Observations [3, 12] of the same molecule?
**A.** Clear, colorless solution

**Q.** What about the pH [3, 12] of the same molecule?
**A.** 6.47

**Q.** And the Observations [3, 13]?
**A.** Clear, colorless solution

**Q.** What about the pH [3, 13] of the same molecule?
**A.** 6.50

**Q.** And the Observations [3, 14]?
**A.** Clear, colorless solution

**Q.** And the pH [3, 14]?
**A.** 6.59

**Q.** And the Observations [3, 15]?
**A.** Clear, colorless solution

**Q.** And the pH [3, 15]?
**A.** 6.61

**Q.** What about the pH ([3]; Table 15: 24-hour-old 20% w/v HPCD reconstitution diluted in HBSS: oritavancin 5 mg/mL, HPCD 2% w/v, 1.25 hr) of the same molecule?
**A.** 6.63

**Q.** And the pH ([3]; Table 15: 24-hour-old 20% w/v HPCD reconstitution diluted in HBSS: oritavancin 5 mg/mL, HPCD 2% w/v, 1.5 hr)?
**A.** 6.71

**Q.** And the pH ([3]; Table 15: 24-hour-old 20% w/v HPCD reconstitution diluted in HBSS: oritavancin 5 mg/mL, HPCD 2% w/v, 1.75 hr)?
**A.** 6.76
